The test system of assay [1] is OCUM-12 gastric cancer cell line. As to the kind of experiment: Antitumor activity test, model with OCUM-12 orthotopic transplantation (prevention model). The class given is in vivo, mouse. Conditions: orally 100 mg/kg/day, once a day for 5 consecutive days followed by 2-day withdrawal. The protocol:
A model with OCUM-12 orthotopic transplantation was prepared to evaluate the above 4 types of candidate antibodies for their in vivo CXCR2 migration inhibitory activity and antitumor activity in a xenograft model with OCUM-12 orthotopic transplantation.
For use as mice, female nude mice (BALB/cAJcl-nu/nu) at 5 to 6 weeks of age were purchased from CLEA Japan, Inc., Japan. For use as human cancer cells, a gastric cancer cell line, OCUM-12, was provided by University Public Corporation Osaka, Japan. […]
On the day following the above transplantation, the mice were randomized into groups (8 or 6 mice per group) and intraperitoneally administered with PBS as a control and with 4 types of candidate antibodies (1A-7H10, 4A-2F7, 5A-5E11 and 028-8-12) and 3 types of non-candidate antibodies (1A-3C6, 1A-2H3 and 4A-5B11) at a dose of 20 mg/kg. […] After 3 weeks had passed from the transplantation, the mice were sacrificed, and the short- and long-axis diameters of tumors formed in their gastric walls were each measured with a caliper. The tumor size was calculated according to the following: 1/2 short-axis diameter (mm)×1/2 long-axis diameter (mm)×3.14. […]
The humanized antibodies were evaluated for their in vivo antitumor activity and CXCR2 migration inhibitory activity in a xenograft model with OCUM-12 orthotopic transplantation. […]

For assay [2], the system named is CXCR2-expressing cells. As to the kind of experiment: In vivo migration inhibitory activity test on CXCR2-expressing cells, OCUM-12 orthotopic transplantation (prevention model). To be noted: navarixin orally 100 mg/kg/day, once a day for 5 consecutive days followed by 2-day withdrawal. Also noted: species or system mouse. From the text:
The stomachs after measurement of the tumor size in [3-1] above were excised and fixed overnight at room temperature with a 10% neutral buffered formalin solution (Wako Pure Chemical Industries, Ltd., Japan), followed by replacement with PBS. Then, paraffin embedding and section preparation were outsourced to Applied Medical Research Laboratory, Japan. The prepared gastric tumor sections were immunohistologically stained with an anti-CXCR2 antibody to evaluate in vivo CXCR2 cell migration inhibitory activity. The sections were deparaffinized and rehydrated, and then treated to inactivate endogenous peroxidase. After antigen activation treatment, the sections were blocked with PBS containing 2% skimmed milk and 0.1% Tween-20, and reacted overnight at 4° C. with an anti-CXCR2 antibody (Biorbyt) as a primary antibody, which had been diluted to 0.3 μg/mL with the blocking solution. […]
Navarixin is among small molecular compounds that act on CXCR2 and inhibit CXCL1-CXCR2 signaling. […] Then, using a model with OCUM-12 orthotopic transplantation, the migration inhibition of CXCR2-expressing cells and antitumor activity were evaluated in vivo for Navarixin. […]
The dose-response relationship between antibody dose and in vivo antitumor activity or CXCR2 migration inhibitory activity was evaluated in a xenograft prevention model with OCUM-12 orthotopic transplantation. […]

The subject of assay [3] is CXCR2-expressing cells. To be noted: known; cited from earlier work.

Consider `CC[C@@H](Nc1c(Nc2cccc(C(=O)N(C)C)c2O)c(=O)c1=O)c1ccc(C)o1` [Navarixin, reference compound], for which the Antitumor activity result in assay [1] is recorded as “no antitumor activity was observed”. The “Migration of CXCR2-expressing cells in vivo” value in the assay on CXCR2-expressing cells [2] is recorded as “significantly inhibit the migration of CXCR2-expressing cells”. In addition, the “Migration of CXCR2-expressing cells in vitro” value in the assay with CXCR2-expressing cells [3] is “known to inhibit the migration of CXCR2-expressing cells in vitro”.

These data come from patent publication US20250154240A1, “ANTI-HUMAN CXCL1 ANTIBODY” (CHIOME BIOSCIENCE INC., priority 2022, published 2025).
